{
  "source": "patent US20160082133A1",
  "about": "“CHEMICAL EXCHANGE SATURATION TRANSFER (CEST) BASED MRI USING REPORTER GENES AND SUBSTRATES AND METHODS THEREOF” (The Johns Hopkins University, priority 2013, published 2016)",
  "key": {"[1]": {"assay": "Quantification of exchange rates (QUESP, Bloch equation fitting)", "type": "physicochemical", "conditions": "11.7 T, pH 7.4, 37° C.", "description": "Exchange rates were quantified with the saturation power dependent CEST approach (QUESP) and Bloch equation fitting (McMahon et al., Magn. Res. Med. 2006, 55, 836). For each sample, the MTRasym was measured at the imino resonance frequency for CEST saturation fields of 43, 85, 128, 170, 213, 255, 340, and 426 Hz while the saturation pulse duration was kept constant at 4000 ms. The Bloch equations were then fit numerically to these MTRasym values using MATLAB (Mathworks), and the exchange rates (kex, s^−1) were determined from the fits. Errors (95% confidence limits) were estimated using the F statistic."}, "[2]": {"assay": "In vitro CEST-MRI of thymidine analogues at 11.7 T", "type": "physicochemical", "conditions": "pH 7.4, 37° C.", "description": "All compounds were dissolved at a concentration of 20 mM in phosphate-buffered saline (PBS) (pH=7.4) and placed in microcapillaries, as described previously.^17 CESTMRI experiments were performed on a vertical 11.7 T scanner (Bruker Avance system) at 37° C. A modified RARE sequence (TR/TE=10 000/9.4 ms; RARE factor=16; 1 mm slice thickness; FOV=11×11 mm^2; matrix size=64×32; resolution=0.17×0.34 mm^2; and NA=2) including a magnetization transfer (MT) module ([…]) was used to acquire CEST-weighted images from −8 to +8 ppm with increments of 0.2 ppm around the water resonance, which was assigned to be at 0 ppm. Pixel-based B0 correction was used as described before using the same parameters as above except for TR=1500 ms and B1/tsat=21 Hz/500 ms, with a sweep range from −2 to +2 ppm (0.1 ppm steps). Data processing was performed using custom-written scripts in MATLAB (Mathworks). Mean CEST spectra were plotted from an ROI for each sample, after B0 correction. MTRasym=100×(S^−Aω−S^AωA/^‘−’0)/3 was computed at different offsets Aω."}, "[3]": {"assay": "In vitro CEST imaging on a clinical 3 Tesla MRI scanner", "type": "physicochemical", "conditions": "3.0 T, 20 mM, pH 7.4, room temperature", "description": "Experiments were performed on a 3.0 Tesla Philips Achieva system (Philips Healthcare, Best, The Netherlands) using a body coil for transmit and a small animal solenoid coil for reception. CEST data were collected using a pulsed acquisition scheme (Jones, C. K. et al. Magn Reson Med 2011) with a 25 ms, 164 Hz frequency selective saturation pulse followed by a partial EPI readout (EPI factor 3). This TR interval was repeated until a 3D volume was acquired with 5 slices (slice thickness of 10 mm) across a field of view of 48×45 mm^2 (in plane resolution of 0.75 mm×0.9 mm) The acquisition per irradiation frequency consisted of TR/TE=65/5.5 ms and 4 averages. A total of 64 images were acquired which included an unsaturated volume and 63 saturated volumes with equally spaced frequency offsets between ±10 ppm (relative to the water frequency). The total acquisition time was 26 min 38 s. The experiments for B0 correction (Kim, M. et al. Magn Reson Med 2009, 61, 1441) were run the same except that 40 Hz frequency selective saturation pulse was used. Data processing was performed as described herein."}, "[4]": {"conditions": "cited from earlier work"}, "[5]": {"conditions": "at 5 ppm for 20 nM agent (so in the source)"}},
  "data": [
    {"smiles": "C[C@H]1CN([C@H]2C[C@H](O)[C@@H](CO)O2)C(=O)NC1=O", "note": "[Compound 1, (5S)-5,6-dihydrothymidine]", "values": [
      {"measurement": "kex of the imino proton", "setting": "[1]", "value": "0.8±0.2×10^3 s^−1"},
      {"measurement": "kex, quantified exchange rates of imino and water protons", "setting": "[1]; 5 ppm for 1-3, 6 ppm for dT", "value": "0.8 ± 0.2 ×10^3 s^−1"},
      {"measurement": "MTRasym (8.5 Hz)", "setting": "[2]; [5]", "value": 6, "unit": "%"},
      {"measurement": "MTRasym (170 Hz)", "setting": "[2]; [5]", "value": 18, "unit": "%"},
      {"measurement": "MTRasym (213 Hz)", "setting": "[2]; [5]", "value": 19, "unit": "%"},
      {"measurement": "MTRasym (128 Hz)", "setting": "[2]; at 5 ppm for 20 mM agent", "value": 14, "unit": "%"},
      {"measurement": "MTRasym value at 5 ppm, higher compared to dT", "setting": "[3]", "value": 40, "unit": "%"},
      {"measurement": "pKa values of the imino proton obtained from the literature", "setting": "[4]", "value": "11.6^43"}
    ]}
  ]
}
